Test results as given in paper PMC5768343, “A natural inhibitor of kidney-type glutaminase: a withanolide from Physalis pubescens with potent anti-tumor activity” (Oncotarget, 2017).

Key:
[1] = test system: glutamine metabolism in SW1990 cells; assay: Intracellular metabolite levels and NADPH/NADP+, SW1990; format: cell-based, human; conditions: SW1990, 2.5 or 5 μM, 4 hours
Protocol: (§1) Blocking glutamine metabolism can inhibit the growth and proliferation of glutamine-dependent cells, mainly because of blocking the production and utilization of glutamine metabolites. The effects of different concentrations of physapubescin K on the intracellular glutamine and its downstream metabolites were examined. […] And the same effect could also be seen in Hcc827-ER cells (Figure 7C).
(§2) NADPH/NADP^+ ratio was determined by using NADP^+/NADPH Quantification Colorimetric Kit (BioVision, #K347-100). The abundance of intracellular glutamine (KeyGen, Nanjing, China A124), glutamate (KeyGen, Nanjing, China A074), (BioVision, #K778), aspartate (BioVision, #K552), oxaloacetate (BioVision, #K659) and malate (BioVision, #K637) was determined by using quantification kits, according the manufacturer’s instruction. Briefly, 5 × 10^6 cells (10-cm dishes) were collected during log-phase growth by cell scraper, homogenized in 0.2 mL of provided buffers (on ice), and centrifuged at 4°C for 10 min at 13,000 g. Supernatants were deproteinized using 10 K Ultrafiltration tube (Millipore, USA), analyzed and compared to standard curves. The signals obtained were normalized to the protein concentration calculated upon processing a parallel 10-cm dish.

[2] = test system: glutamine metabolism in T47D cells; assay: Intracellular metabolite levels, T47D; format: cell-based, human; conditions: 2.5 or 5 μM, 4 hours
Protocol: as §1, §2

CO[C@H]1O[C@@H]([C@@H](C)[C@H]2C[C@H](OC(C)=O)[C@H]3[C@@H]4C[C@H]5O[C@]56[C@@H](O)C=CC(=O)[C@]6(C)[C@H]4CC[C@@]32C)C[C@]2(C)O[C@]12C [physapubescin K]
consumption of glutamine [1]: significantly reduce
production of glutamic acid and its downstream metabolites (oxaloacetic acid, aspartic acid, malic acid) [1]: decrease
proportion of NADPH/NADP+ [1]: significantly reduced
effects on glutamine metabolism [2]: moderate effects
